Assay results as given in patent US6642274B1, “Methods and compositions for preventing and treating prostate disorders” (priority 1999, dated 2003).

Legend:
cancer cell cultures [1] = experiment: Cytostatic or cytotoxic effects on cancer cell cultures; format: cell-based; conditions: after hydrolysis of alpha-tocopherol succinate into alpha-tocopherol
Text: (§1) Szarka reviews the strategy of chemoprevention as a possible method of blocking the development of cancers in humans (C F Szarka et al “Chemoprevention of cancer” Curr Probl Cancer 1994 January-February; 18(1):6-79).

[2] = in vivo
Text: as §1

cancer cell cultures [3] = conditions: cited from earlier work
BPH = conditions: cited from earlier work
5alpha-reductase = conditions: after daily dosing with 5 milligrams; cited from earlier work
[4] = rapid hydrolysis by serum and tissue esterases into alpha-tocopherol; cited from earlier work

factor by which minimal target tissue concentration exceeds the maximum levels possible in oral administration [2] | SMILES | reduction in potency relative to alpha-tocopherol succinate (cancer cell cultures [1]) [fold] | concentration necessary to demonstrate cytostatic or cytotoxic effects (cancer cell cultures [3]) | side effects in men (BPH; oral administration) | increase in peak urinary flow rates (BPH; two large clinical studies, finasteride treatment) [mls/second] | reduction in serum dihydrotestosterone levels (5alpha-reductase) [%] | levels available systemically after oral administration [4]
7-10 fold | Cc1c(C)c2c(c(C)c1O)CC[C@@](C)(CCC[C@H](C)CCC[C@H](C)CCCC(C)C)O2 [alpha-tocopherol] | 50 | 0.5 millimolar | – | – | – | –
– | CC(C)(C)NC(=O)[C@H]1CC[C@H]2[C@@H]3CC[C@H]4NC(=O)C=C[C@]4(C)[C@H]3CC[C@]12C [finasteride] | – | – | erectile dysfunction, decreased volume of ejaculate and loss of libido | ~1.6 | 70 | –
10-20 fold | O=C1O[C@H]([C@@H](O)CO)C(O)=C1O [ascorbic acid] | – | 1-2 millimolar | – | – | – | –
– | Cc1c(C)c2c(c(C)c1OC(=O)CCC(=O)O)CC[C@@](C)(CCC[C@H](C)CCC[C@H](C)CCCC(C)C)O2 [alpha-tocopherol succinate] | – | 10 µM | – | – | – | undetectable levels
